For twelve compounds, IC50 results are on record in patent US12281114B2, “NK3 modulators and uses thereof” (Kallyope, Inc., priority 2023, dated 2025).

One may read the IC50 as the concentration at which inhibition is half-maximal.

Each structure is given as a SMILES string.

This assay has as its target T1, human NK3 (Homo sapiens, UniProt P29371).
T1 sequence (P29371 1-465): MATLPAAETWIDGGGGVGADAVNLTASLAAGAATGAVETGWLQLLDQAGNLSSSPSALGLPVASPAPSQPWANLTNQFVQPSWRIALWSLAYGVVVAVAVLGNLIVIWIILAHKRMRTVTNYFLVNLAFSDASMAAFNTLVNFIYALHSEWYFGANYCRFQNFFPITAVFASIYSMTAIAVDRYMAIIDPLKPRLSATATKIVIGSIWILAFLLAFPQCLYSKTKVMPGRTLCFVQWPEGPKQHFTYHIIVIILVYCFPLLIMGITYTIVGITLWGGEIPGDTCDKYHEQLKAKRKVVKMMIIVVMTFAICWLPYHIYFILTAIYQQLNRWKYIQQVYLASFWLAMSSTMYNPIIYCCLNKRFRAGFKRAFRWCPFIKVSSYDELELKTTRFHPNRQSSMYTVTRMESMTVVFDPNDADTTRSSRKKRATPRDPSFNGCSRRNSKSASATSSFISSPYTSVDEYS
The experiment in a line: FLIPR calcium assay in antagonist mode (NKB EC70 challenge). The class given is cell-based. The following applies: stable cell line expressing human recombinant NK3; antagonist mode vs EC70 of NKB agonist. Summed up: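 Recombinant human NK3 stable cells loaded with Calcium 6 dye were given compound, read for 10 min, then challenged with NKB at its predetermined EC70 and read 10 min by FLIPR. The second peak minus baseline was normalized to 10 μM and 0 μM antagonist controls, and fitted for IC50 and efficacy.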
`Cn1cc(-c2cc(F)cc(F)c2-c2nc3cc(C(=O)N[C@H]4C[C@](O)(CO)C4)ccn3c2Cl)c(F)n1` [Compound 922, 3-chloro-2-(2,4-difluoro-6-(3-fluoro-1-methyl-1H-pyrazol-4-yl)phenyl)-N-((1s,3s)-3-hydroxy-3-(hydroxymethyl)cyclobutyl)imidazo[1,2-a]pyridine-7-carboxamide]: the 50% inhibitory concentration (IC50) was 2.83 nM.
As for `Cn1cc(-c2cc(F)cc(F)c2-c2nc3cc(C(=O)N[C@H]4C[C@@](O)(CO)C4)ccn3c2Cl)c(F)n1` [Compound 923, 3-chloro-2-(2,4-difluoro-6-(3-fluoro-1-methyl-1H-pyrazol-4-yl)phenyl)-N-((1r,3r)-3-hydroxy-3-(hydroxymethyl)cyclobutyl)imidazo[1,2-a]pyridine-7-carboxamide], the IC50 amounted to 2.36 nM.
On to `Cn1cc(-c2cccc(F)c2-c2nc3cc(C(=O)N[C@H]4CC[C@H](CO)OC4)ccn3c2Cl)c(F)n1` [Compound 924, 3-chloro-2-(2-fluoro-6-(3-fluoro-1-methyl-1H-pyrazol-4-yl)phenyl)-N-((3S,6R)-6-(hydroxymethyl)tetrahydro-2H-pyran-3-yl)imidazo[1,2-a]pyridine-7-carboxamide], for which the IC50 came to 0.97 nM.
Regarding `Cn1cc(-c2cccc(F)c2-c2nc3cc(C(=O)N[C@H]4C[C@](C)(O)C4)ccn3c2C#N)c(F)n1` [Compound 925, 3-cyano-2-(2-fluoro-6-(3-fluoro-1-methyl-1H-pyrazol-4-yl)phenyl)-N-((1r,3r)-3-hydroxy-3-methylcyclobutyl)imidazo[1,2-a]pyridine-7-carboxamide], the IC50 came to 1.85 nM.
As for `Cn1cc(-c2cccc(F)c2-c2nc3cc(C(=O)N[C@H]4CC[C@@H](CO)OC4)ccn3c2C#N)c(F)n1` [Compound 926], the IC50 was 2.21 nM.
`Cn1cc(-c2ccc(F)c(F)c2-c2nc3cc(C(=O)N[C@H]4C[C@](C)(O)C4)ccn3c2Cl)c(F)n1` [Compound 927]: the IC50 came out at 2.66 nM.
As to `Cn1cc(-c2cccc(F)c2-c2nc3cc(C(=O)N[C@H]4CC5(C4)C[C@](C)(O)C5)ccn3c2Cl)c(F)n1` (stereo partly drawn) [Compound 928, cis 3-chloro-2-(2-fluoro-6-(3-fluoro-1-methyl-1H-pyrazol-4-yl)phenyl)-N-(6-hydroxy-6-methylspiro[3.3]heptan-2-yl)imidazo[1,2-a]pyridine-7-carboxamide], the IC50 is 1.56 nM.
As for `Cn1cc(-c2cccc(F)c2-c2nc3cc(C(=O)N[C@H]4CC5(C4)C[C@](C)(O)C5)ccn3c2Cl)c(F)n1` (stereo partly drawn) [Compound 929, trans 3-chloro-2-(2-fluoro-6-(3-fluoro-1-methyl-1H-pyrazol-4-yl)phenyl)-N-(6-hydroxy-6-methylspiro[3.3]heptan-2-yl)imidazo[1,2-a]pyridine-7-carboxamide], the IC50 worked out at 2.07 nM.
On to `Cn1cc(-c2cccc(F)c2-c2nc3cc(C(=O)N[C@H]4CC[C@](C)(O)CC4)ccn3c2C#N)c(F)n1` [Compound 930, 3-cyano-2-(2-fluoro-6-(3-fluoro-1-methyl-1H-pyrazol-4-yl)phenyl)-N-((1r,4r)-4-hydroxy-4-methylcyclohexyl)imidazo[1,2-a]pyridine-7-carboxamide], for which the IC50 was 3 nM.
Turning to `Cn1cc(-c2ccc(F)c(F)c2-c2nc3cc(C(=O)NC45COC(C)(C4)C5)ccn3c2C#N)c(F)n1` [Compound 932, 3-cyano-2-(2,3-difluoro-6-(3-fluoro-1-methyl-1H-pyrazol-4-yl)phenyl)-N-(1-methyl-2-oxabicyclo[2.1.1]hexan-4-yl)imidazo[1,2-a]pyridine-7-carboxamide], the IC50 came out at 6.09 nM.
In the case of `Cn1cc(-c2ccc(F)c(F)c2-c2nc3cc(C(=O)N4CCOCC4)ccn3c2Cl)c(F)n1` [Compound 933, (3-chloro-2-(2,3-difluoro-6-(3-fluoro-1-methyl-1H-pyrazol-4-yl)phenyl)imidazo[1,2-a]pyridin-7-yl)(morpholino)methanone], the IC50 was determined as 5.66 nM.
Turning to `Cn1cc(-c2cccc(F)c2-c2nc3cc(C(=O)N[C@]45CC[C@](CO)(C4)OC5)ccn3c2Cl)cn1` [Compound 934], the IC50 was found to be 9.69 nM.
